Measurements taken from ChEMBL document CHEMBL1201862, “PubChem BioAssay data set” (2004).
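Grown in 96-well plates, cells were treated for 48 hours with each compound at five concentrations. Insufficient inhibition: endpoint recorded as highest concentration tested. Abbreviation: GI50, concentration required for 50% inhibition of growth.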 Active and inactive are the calls of the source. Rule as the data show it: active = GI50 up to about 1.1 µM and inactive = higher.

Tests used:
Assay in all cases: NCI-60 cell line screen, 48 h
CCRF-CEM = system: CCRF-CEM
OVCAR-4 = system: OVCAR-4
HOP-92 = system: HOP-92
M14 = system: M14
UO-31 = system: UO-31
KM12 = system: KM12
MDA-MB-231 = system: MDA-MB-231
MOLT-4 = system: MOLT-4
NCI-H23 = system: NCI-H23
HL-60 = system: HL-60
SF-539 = system: SF-539
OVCAR-3 = system: OVCAR-3
Malme-3M = system: Malme-3M
IGROV-1 = system: IGROV-1
EKVX = system: EKVX
SR = system: SR
SK-MEL-5 = system: SK-MEL-5
SK-OV-3 = system: SK-OV-3
SW-620 = system: SW-620
PC-3 = system: PC-3
UACC-62 = system: UACC-62
LOX IMVI = system: LOX IMVI
RPMI-8226 = system: RPMI-8226
HT-29 = system: HT-29
CAKI-1 = system: CAKI-1
NCI-H522 = system: NCI-H522
T47D = system: T47D
SF-295 = system: SF-295
COLO 205 = system: COLO 205
UACC-257 = system: UACC-257
HCT-116 = system: HCT-116
SN12C = system: SN12C
SF-268 = system: SF-268
HCC 2998 = system: HCC 2998
DU-145 = system: DU-145
SK-MEL-28 = system: SK-MEL-28
U-251 = system: U-251
NCI-H226 = system: NCI-H226
RXF 393 = system: RXF 393
K562 = system: K562
NCI-H460 = system: NCI-H460
OVCAR-8 = system: OVCAR-8
MCF7 = system: MCF7
Hs-578T = system: Hs-578T
OVCAR-5 = system: OVCAR-5
TK-10 = system: TK-10
HCT-15 = system: HCT-15
SNB-19 = system: SNB-19
MDA-MB-435 = system: MDA-MB-435
NCI/ADR-RES = system: NCI/ADR-RES
MDA-N = system: MDA-N
ACHN = system: ACHN
HOP-62 = system: HOP-62
786-0 = system: 786-0
SNB-75 = system: SNB-75
A498 = system: A498
A549 = system: A549
SK-MEL-2 = system: SK-MEL-2

Measured: GI50

C/C=C(/C)C(=O)O[C@@H]1c2c(C)coc2C[C@H]2CC[C@H](O)[C@H](C)[C@]21C
78.5 µM: HCT-15
inactive: CCRF-CEM 36.7 µM | OVCAR-4 39.4 µM | HOP-92 74.8 µM | M14 54.1 µM | UO-31 68.2 µM | KM12 46.2 µM | MDA-MB-231 71.6 µM | MOLT-4 30.6 µM | NCI-H23 34.2 µM | HL-60 34.5 µM | SF-539 31.9 µM | OVCAR-3 27 µM | Malme-3M 26.9 µM | IGROV-1 43.3 µM | EKVX > 100 µM | SR 49.9 µM | SK-MEL-5 35.6 µM | SK-OV-3 > 100 µM | SW-620 24 µM | PC-3 97.7 µM | UACC-62 43.8 µM | LOX IMVI 49.4 µM | RPMI-8226 31.3 µM | HT-29 47.1 µM | CAKI-1 > 100 µM | NCI-H522 60 µM | T47D 68.9 µM | SF-295 > 100 µM | COLO 205 > 100 µM | UACC-257 34.2 µM | HCT-116 31.6 µM | SN12C 31.3 µM | SF-268 70.8 µM | HCC 2998 > 100 µM | DU-145 > 100 µM | SK-MEL-28 44.8 µM | U-251 > 100 µM | NCI-H226 52.1 µM | RXF 393 27 µM | K562 38 µM | NCI-H460 > 100 µM | OVCAR-8 42.5 µM | MCF7 26.3 µM | Hs-578T 64.7 µM | OVCAR-5 > 100 µM | TK-10 64.6 µM | SNB-19 > 100 µM | MDA-MB-435 38.5 µM | NCI/ADR-RES 23.1 µM | MDA-N 50 µM | ACHN 36.9 µM | HOP-62 > 100 µM

CCOC(=O)Cn1c2ccc(Br)cc2c2nc3ccccc3nc21
inactive: CCRF-CEM > 100 µM | HOP-92 > 100 µM | M14 > 100 µM | UO-31 > 100 µM | KM12 > 100 µM | MDA-MB-231 > 100 µM | MOLT-4 > 100 µM | NCI-H23 > 100 µM | OVCAR-3 > 100 µM | 786-0 > 100 µM | IGROV-1 55.7 µM | SR 88.7 µM | SK-MEL-5 > 100 µM | SNB-75 > 100 µM | SW-620 > 100 µM | PC-3 > 100 µM | UACC-62 > 100 µM | LOX IMVI > 100 µM | RPMI-8226 > 100 µM | HT-29 > 100 µM | CAKI-1 > 100 µM | T47D > 100 µM | SF-295 > 100 µM | COLO 205 > 100 µM | A498 > 100 µM | UACC-257 > 100 µM | A549 > 100 µM | HCT-116 > 100 µM | SN12C > 100 µM | SF-268 > 100 µM | DU-145 > 100 µM | SK-MEL-28 > 100 µM | U-251 > 100 µM | NCI-H226 > 100 µM | SK-MEL-2 > 100 µM | RXF 393 > 100 µM | K562 > 100 µM | OVCAR-8 > 100 µM | Hs-578T 93.3 µM | OVCAR-5 > 100 µM | TK-10 > 100 µM | SNB-19 > 100 µM | MDA-MB-435 > 100 µM | NCI/ADR-RES > 100 µM | MDA-N > 100 µM | ACHN > 100 µM | HOP-62 > 100 µM

COc1ccc(C2=CC(c3ccccc3)n3nnnc3N2)cc1 (stereo not drawn)
> 100 µM: HCT-15
inactive: CCRF-CEM > 100 µM | M14 > 100 µM | UO-31 > 100 µM | KM12 > 100 µM | MDA-MB-231 > 100 µM | MOLT-4 > 100 µM | NCI-H23 > 100 µM | HL-60 > 100 µM | SF-539 > 100 µM | OVCAR-3 > 100 µM | 786-0 > 100 µM | IGROV-1 > 100 µM | SR > 100 µM | SK-MEL-5 > 100 µM | SK-OV-3 > 100 µM | SW-620 > 100 µM | PC-3 > 100 µM | UACC-62 > 100 µM | LOX IMVI > 100 µM | RPMI-8226 7.14 µM | HT-29 > 100 µM | CAKI-1 > 100 µM | NCI-H522 > 100 µM | T47D 56.9 µM | SF-295 52.2 µM | COLO 205 > 100 µM | UACC-257 > 100 µM | A549 > 100 µM | HCT-116 > 100 µM | SN12C > 100 µM | SF-268 74 µM | DU-145 > 100 µM | U-251 56 µM | NCI-H226 > 100 µM | SK-MEL-2 > 100 µM | RXF 393 > 100 µM | K562 > 100 µM | NCI-H460 > 100 µM | OVCAR-8 > 100 µM | MCF7 > 100 µM | Hs-578T 76.9 µM | OVCAR-5 > 100 µM | SNB-19 > 100 µM | MDA-MB-435 > 100 µM | NCI/ADR-RES > 100 µM | ACHN > 100 µM | HOP-62 40.6 µM

CC(O)(C#N)CC(O)(C(F)(F)Cl)C(F)(F)Cl (stereo not drawn)
inactive: OVCAR-4 > 10 µM | HOP-92 > 10 µM | M14 > 10 µM | UO-31 > 10 µM | KM12 > 10 µM | MDA-MB-231 > 10 µM | NCI-H23 > 10 µM | SF-539 > 10 µM | OVCAR-3 > 10 µM | IGROV-1 > 10 µM | EKVX > 10 µM | SK-MEL-5 > 10 µM | SNB-75 > 10 µM | SW-620 > 10 µM | PC-3 > 10 µM | HT-29 > 10 µM | CAKI-1 > 10 µM | SF-295 > 10 µM | COLO 205 > 10 µM | A498 > 10 µM | A549 > 10 µM | HCT-116 > 10 µM | SN12C > 10 µM | SF-268 > 10 µM | DU-145 > 10 µM | SK-MEL-28 > 10 µM | U-251 > 10 µM | NCI-H226 > 10 µM | RXF 393 > 10 µM | OVCAR-8 > 10 µM | OVCAR-5 > 10 µM | TK-10 > 10 µM | SNB-19 > 10 µM | MDA-MB-435 > 10 µM | NCI/ADR-RES > 10 µM | MDA-N > 10 µM | ACHN > 10 µM
> 10 µM: HCT-15

c1ccc(COc2ccc(CC3SCCCS3)cc2)cc1
67.3 µM: HCT-15
inactive: CCRF-CEM 43.6 µM | OVCAR-4 > 100 µM | HOP-92 17.8 µM | M14 > 100 µM | MDA-MB-231 74.1 µM | MOLT-4 31.8 µM | HL-60 23.2 µM | OVCAR-3 > 100 µM | Malme-3M > 100 µM | IGROV-1 66.2 µM | EKVX > 100 µM | SR 34.4 µM | SK-MEL-5 35.2 µM | SW-620 > 100 µM | PC-3 > 100 µM | UACC-62 > 100 µM | LOX IMVI > 100 µM | RPMI-8226 50.2 µM | HT-29 > 100 µM | CAKI-1 62.7 µM | NCI-H522 > 100 µM | T47D 49.7 µM | SF-295 > 100 µM | COLO 205 > 100 µM | UACC-257 21.8 µM | A549 > 100 µM | HCT-116 > 100 µM | SF-268 > 100 µM | HCC 2998 > 100 µM | DU-145 > 100 µM | SK-MEL-28 > 100 µM | K562 52.5 µM | NCI-H460 65.8 µM | OVCAR-8 > 100 µM | MCF7 > 100 µM | TK-10 > 100 µM | SNB-19 > 100 µM | MDA-MB-435 > 100 µM | MDA-N > 100 µM | ACHN > 100 µM | HOP-62 > 100 µM
